Consider 10 molecules from patent US10717750B2, “68Ga-labeled NOTA-chelated PSMA-targeted imaging and therapeutic agents” (THE JOHNS HOPKINS UNIVERSITY, priority 2009, dated 2020).

Data set [1] deals with T1, PSMA (Homo sapiens, UniProt Q04609).
T1 construct: endogenous in cells; host or cells: LNCaP cell lysate
Kind of data set: PSMA inhibition assay (fluorescence-based, NAAG hydrolysis, Amplex Red). Format: biochemical. The conditions noted are these: for Ki: lysates of LNCaP cell extracts, 4 μM NAAG, Cheng-Prusoff conversion. Here is the method:
The PSMA inhibitory activity of 1, 2 and DKFZ-PSMA-11 and the corresponding natural Ga-labeled analogs Ga-1 and Ga-2 were determined using a fluorescence-based assay according to a previously reported procedure (Banerjee et al. (2011) Angewandte Chemie 50, 9167-70) (Table 1). Briefly, lysates of LNCaP cell extracts (25 μL) were incubated with the inhibitor (12.5 μL) in the presence of 4 μM N-acetylaspartylglutamate (NAAG) (12.5 μL) for 2 h. The amount of the glutamate released by NAAG hydrolysis was measured by incubating with a working solution (50 μL) of the Amplex Red Glutamic Acid Kit (Life Technologies, Grand Island, N.Y.) for 1 h.
Fluorescence was measured with a VICTOR3V multilabel plate reader (Perkin Elmer Inc., Waltham, Mass.) with excitation at 490 nm and emission at 642 nm. Inhibition curves were determined using semi-log plots and IC50 values were determined at the concentration at which enzyme activity was inhibited by 50%. Enzyme inhibitory constants (Ki values) were generated using the Cheng-Prusoff conversion (Cheng et al. (1973) Biochemical pharmacology 22, 3099-108). Assays were performed in triplicate. Data analysis was performed using GraphPad Prism version 4.00 for Windows (GraphPad Software, San Diego, Calif.).

A short description of data set [2]: Hydrophilicity/lipophilicity judged from HPLC retention (RP C8). The conditions noted are these: based on HPLC retention time. Format: physicochemical.
The conditions of data set [3]: chelating agent with gallium, cited from earlier work.
Data set [4] has as its system PSMA+ PC3 PIP and PSMA− PC3 flu tumors. Put plainly: Tissue biodistribution in mice bearing PSMA+ PC3 PIP and PSMA− PC3 flu tumors. The conditions noted are these: mouse, in vivo.
Data set [5] has the same test system.
Setting [6] is: 1 h post-injection, mean ± SD, n = 4.
The mark [7] stands for this setting: 2 h post-injection, mean ± SD, n = 4.
Setting [8] is: 3 h post-injection, mean ± SD, n = 4.

The structures appear in SMILES notation. “Also recorded” adds a separate entry of the source. Like-named read-outs stand apart in the source and are kept apart here.

T1 sequence (Q04609 whole entry): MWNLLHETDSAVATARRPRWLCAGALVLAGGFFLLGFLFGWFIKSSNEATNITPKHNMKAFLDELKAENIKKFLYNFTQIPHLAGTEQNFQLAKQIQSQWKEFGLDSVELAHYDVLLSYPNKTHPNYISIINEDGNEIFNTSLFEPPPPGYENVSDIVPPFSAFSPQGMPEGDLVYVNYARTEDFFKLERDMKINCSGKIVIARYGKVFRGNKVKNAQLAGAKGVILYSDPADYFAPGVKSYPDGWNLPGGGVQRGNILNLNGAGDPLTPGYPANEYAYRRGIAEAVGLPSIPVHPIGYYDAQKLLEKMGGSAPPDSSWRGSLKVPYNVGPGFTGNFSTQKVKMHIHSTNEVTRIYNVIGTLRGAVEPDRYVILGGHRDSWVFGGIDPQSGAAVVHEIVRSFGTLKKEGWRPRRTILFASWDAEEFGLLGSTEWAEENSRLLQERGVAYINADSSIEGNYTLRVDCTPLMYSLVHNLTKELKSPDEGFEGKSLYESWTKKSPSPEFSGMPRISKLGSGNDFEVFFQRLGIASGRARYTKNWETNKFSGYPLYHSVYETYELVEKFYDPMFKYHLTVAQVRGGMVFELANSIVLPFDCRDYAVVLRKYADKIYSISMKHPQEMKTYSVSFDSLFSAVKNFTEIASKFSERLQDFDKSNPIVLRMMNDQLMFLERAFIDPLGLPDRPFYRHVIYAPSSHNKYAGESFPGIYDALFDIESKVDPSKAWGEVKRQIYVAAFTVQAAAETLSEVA

As for `O=C(O)CCC(NC(=O)NC(CCCCNC(=O)CCCCCCC(=O)NCCCCC(NC(=O)C(Cc1ccccc1)NC(=O)C(Cc1ccccc1)NC(=O)CN1CCN(CC(=O)O)CCN(CC(=O)O)CCN(CC(=O)O)CC1)C(=O)O)C(=O)O)C(=O)O` (centres unmarked) [Compound 1], affinity in data set [1] was put at a Ki of 0.7 nM.

`O=C(O)CCC(NC(=O)NC(CCCCNC(=O)CCCCCCC(=O)NC(CCCCNC(=S)Nc1ccc(CC2CN(CC(=O)O)CCN(CC(=O)O)CCN2CC(=O)O)cc1)C(=O)O)C(=O)O)C(=O)O` (centres unmarked) [Compound 2] yielded a Ki in data set [1] of 0.81 nM.

As for `O=C(O)CCc1ccc(O)c(CN(CCN(CC(=O)O)Cc2cc(CCC(=O)NCCCCCC(=O)NCCCC[C@H](NC(=O)N[C@@H](CCC(=O)O)C(=O)O)C(=O)O)ccc2O)CC(=O)O)c1` [DKFZ-PSMA-11, Glu-urea-Lys-(Ahx)-HBED-CC, reference compound], in data set [1], the “PSMA-binding affinity relative to Ga-1 and Ga-2” value was “ten-fold higher”; the affinity, expressed as Ki, was 0.03 nM. The “hydrophilicity/lipophilicity rank in the series” value in data set [2] is listed as “least hydrophilic; also recorded: most lipophilic”.

Consider `O=C(O)CN1CCN(CC(=O)O)CCN(CC(=O)O)CCN(CC(=O)O)CC1` [DOTA, 1,4,7,10-tetraazacyclododecane-1,4,7,10-tetraacetic acid], for which, in data set [3] (the values are: log stability constant), the stability constant, KML, for 68Ga was 21.3.

In turn, `O=C([O-])CN1CCN(CC(=O)[O-])CCN(CC(=O)NC(Cc2ccccc2)C(=O)NC(Cc2ccccc2)C(=O)NC(CCCCNC(=O)CCCCCCC(=O)NCCCCC(NC(=O)NC(CCC(=O)O)C(=O)O)C(=O)O)C(=O)O)CCN(CC(=O)[O-])CC1.[Ga+3]` (centres unmarked) [Ga-1] came in with an inhibition constant Ki in data set [1] of 0.33 nM.

Turning to `O=C([O-])CN1CCN(CC(=O)[O-])CC(Cc2ccc(NC(=S)NCCCCC(NC(=O)CCCCCCC(=O)NCCCCC(NC(=O)NC(CCC(=O)O)C(=O)O)C(=O)O)C(=O)O)cc2)N(CC(=O)[O-])CC1.[Ga+3]` (centres unmarked) [Ga-2], in data set [1], affinity was put at a Ki of 0.38 nM.

Turning to `O=C([O-])CN(CCN(CC(=O)[O-])Cc1cc(CCC(=O)NCCCCCC(=O)NCCCCC(NC(=O)NC(CCC(=O)O)C(=O)O)C(=O)O)ccc1[O-])Cc1cc(CCC(=O)O)ccc1[O-].[Ga+3]` (centres unmarked) [Ga-DKFZ-PSMA-11], the “hydrophilicity/lipophilicity rank in the series” value in data set [2] is reported as “most hydrophilic”.

For `O=C(O)CN1CCN(CC(=O)O)CCN(CC(=O)O)CC1` [NOTA, 1,4,7-triazacyclononane-1,4,7-trisacetic acid], in data set [3], the “stability constant, KML, for 68Ga” value is reported as 31.1.

With `O=C([O-])CN1CCN(CC(=O)[O-])CC(Cc2ccc(NC(=S)NCCCCC(NC(=O)CCCCCCC(=O)NCCCCC(NC(=O)NC(CCC(=O)O)C(=O)O)C(=O)O)C(=O)O)cc2)N(CC(=O)[O-])CC1.[68Ga+3]` (centres unmarked) [^68Ga-2], the “rate of clearance from tissues, comparison of the three radiotracers” value in data set [4] is recorded as “fastest rate of clearance from all tissues”.

As to `O=C([O-])CN(CCN(CC(=O)[O-])Cc1cc(CCC(=O)NCCCCCC(=O)NCCCCC(NC(=O)NC(CCC(=O)O)C(=O)O)C(=O)O)ccc1[O-])Cc1cc(CCC(=O)O)ccc1[O-].[68Ga+3]` (centres unmarked) [^68Ga-DKFZ-PSMA-11, reference compound], the “PSMA+ PC3 PIP-to-PSMA− PC3 flu ratio” value in data set [5] (1 h post-injection) is listed as 46.62±7.57. Moreover, in data set [5] (setting [6]), the “PIP:blood ratio” value was found to be 35.45 ± 13.43, the “PIP:flu (PSMA+ PC3 PIP-to-PSMA− PC3 flu tumor uptake ratio)” value is reported as 46.62 ± 17.57, the “PSMA+ PC3 PIP tumor uptake” value was determined as 25.96 ± 9.69 % ID/g and the “PSMA− PC3 flu tumor uptake” value was 0.57 ± 0.14 % ID/g. In data set [5] (setting [6]), this molecule had a blood uptake of 0.75 ± 0.20 % ID/g, a heart uptake of 0.42 ± 0.16 % ID/g, a kidney uptake of 133.24 ± 21.08 % ID/g and a liver uptake of 0.75 ± 0.19 % ID/g. Moreover, in data set [5] (setting [6]), the lung uptake was found to be 2.21 ± 0.48 % ID/g, the muscle uptake was 0.32 ± 0.12 % ID/g, the salivary gland uptake came out at 1.42 ± 0.33 % ID/g and the small intestine uptake was 0.39 ± 0.09 % ID/g. In data set [5] (setting [6]), this molecule yielded a spleen uptake of 12.35 ± 3.75 % ID/g. The “PSMA+ PC3 PIP-to-PSMA− PC3 flu ratio” value in data set [5] (2 h post-injection) amounted to 57.68±27.10. Further, in data set [5] (setting [7]), the “PIP:blood ratio” value is on record as 51.88 ± 10.82, the “PIP:flu (PSMA+ PC3 PIP-to-PSMA− PC3 flu tumor uptake ratio)” value was 57.68 ± 27.10, the “PIP:kidney ratio” value is 0.24 ± 0.04 and the “PSMA+ PC3 PIP tumor uptake” value was determined as 21.08 ± 1.17 % ID/g. Also, in data set [5] (setting [7]), the “PSMA− PC3 flu tumor uptake” value is given as 0.41 ± 0.17 % ID/g, the blood uptake came out at 0.41 ± 0.06 % ID/g, the heart uptake is given as 0.28 ± 0.06 % ID/g and the kidney uptake is 88.56 ± 20.09 % ID/g. Further, in data set [5] (setting [7]), the liver uptake is recorded as 0.33 ± 0.05 % ID/g, the lung uptake came to 2.07 ± 0.68 % ID/g, the muscle uptake came to 0.19 ± 0.09 % ID/g and the salivary gland uptake was determined as 1.02 ± 0.22 % ID/g. In addition, in data set [5] (setting [7]), the small intestine uptake is 0.19 ± 0.07 % ID/g and the spleen uptake is reported as 8.87 ± 1.50 % ID/g. The “PSMA+ PC3 PIP-to-PSMA− PC3 flu ratio” value in data set [5] (3 h post-injection) was determined as 110.57±21.27. Moreover, in data set [5] (setting [8]), the “PIP:blood ratio” value was 79.55 ± 9.83, the “PIP:kidney ratio” value is 0.22 ± 0.04, the “PIP:salivary gland ratio” value is listed as 31.40 ± 4.85 and the “PSMA+ PC3 PIP tumor uptake” value worked out at 26.86±5.59 % ID/g. In addition, in data set [5] (setting [8]), the “PSMA− PC3 flu tumor uptake” value was determined as 0.25 ± 0.07 % ID/g, the blood uptake came to 0.34 ± 0.06 % ID/g, the heart uptake amounted to 0.20 ± 0.04 % ID/g and the kidney uptake turned out to be 119.54 ± 15.49 % ID/g. In data set [5] (setting [8]), this molecule gave a liver uptake of 0.38 ± 0.15 % ID/g, a lung uptake of 1.26 ± 0.20 % ID/g, a muscle uptake of 0.14 ± 0.02 % ID/g and a salivary gland uptake of 0.86 ± 0.12 % ID/g. In data set [5] (setting [8]), this molecule returned a small intestine uptake of 0.17 ± 0.06 % ID/g and a spleen uptake of 7.18 ± 2.25 % ID/g. The “spleen uptake, comparison with ^68Ga-1 or ^68Ga-2” value in data set [5] (all time-points, P<0.04) is listed as “higher spleen uptake”. Moreover, in data set [5] (up to 3 h after injection, P<0.001), the “salivary gland uptake, comparison with ^68Ga-1 and ^68Ga-2” value is given as “significantly higher salivary gland uptake”. Besides, in data set [5] (up to 3 h post-injection), the “uptake and retention in normal tissues (kidney, blood, spleen, salivary glands, PSMA-negative PC3 flu tumors), comparison” value is “highest uptake and retention”. Also, the “hydrophilicity/lipophilicity rank in the series” value in data set [2] is “most hydrophilic”.

A word on the Ki: it is a dissociation constant, usually derived from enzyme kinetics or from competition with a known ligand.
